Read-outs that look alike come from different tables or passages of the source.
Assays:
[1] = test system: patients with advanced pancreatic cancer; type: in vivo, human
[2] = cited from earlier work
Plasma pharmacokinetics = type: in vivo, human; settings: for Tmax: median; for effect of co‐administration on exposure: dinaciclib with MK‐2206
pSer473 Akt = settings: lowest dose level tested (60 mg once weekly); cited from earlier work
[3] = A: Dinaciclib/combination N = 11

NC1(c2ccc(-c3nc4ccn5c(=O)[nH]nc5c4cc3-c3ccccc3)cc2)CCC1 [MK‐2206]
Dose reduction MK‐2206 [1, 3]: 0 (0%) n (%) | Dose reduction MK‐2206 ([1]; B: MK‐2206/combination N = 7): 1 (14%) n (%) | Dose reduction MK‐2206 ([1]; Dose escalation N = 21): 1 (5%) n (%) | maximum tolerated dose ([1]; MK‐2206 p.o. weekly in combination with dinaciclib): 135 mg | recommended phase II dose ([2]; once weekly): 200 mg | C ss,min (Plasma pharmacokinetics; MK‐2206 alone, Expansion, arm B, MK‐2206 135 mg, dinaciclib 9 mg/m^2, mean ± SD): 48.0 ± 22.7 (7) | Tmax (Plasma pharmacokinetics; MK‐2206 alone, Expansion, arm B, MK‐2206 135 mg, dinaciclib 9 mg/m^2): 4 (2.17–25.17; 7) hour | T 1/2 (Plasma pharmacokinetics; MK‐2206 in combination, Expansion, arm B, dose reduced, MK‐2206 90 mg, dinaciclib 9 mg/m^2, n = 1): 64.5 (1) h | effect of co‐administration on exposure (Plasma pharmacokinetics): did not alter | half-life (Plasma pharmacokinetics; human, plasma, oral, 90 mg, T 1/2, MK‐2206 alone, Escalation, level 3, MK‐2206 90 mg, dinaciclib 12 mg/m^2, mean ± SD): 2.85 ± 0.692 days | Tmax (Plasma pharmacokinetics; human, plasma, oral, 90 mg, Tmax, MK‐2206 alone, Escalation, level 3, MK‐2206 90 mg, dinaciclib 12 mg/m^2): 5.97 h | half-life (Plasma pharmacokinetics; human, plasma, oral, 135 mg, T 1/2, MK‐2206 alone, Escalation, level 2.5, MK‐2206 135 mg, dinaciclib 9 mg/m^2, mean ± SD): 2.37 ± 0.404 days | Tmax (Plasma pharmacokinetics; human, plasma, oral, 135 mg, Tmax, MK‐2206 alone, Escalation, level 2.5, MK‐2206 135 mg, dinaciclib 9 mg/m^2): 4.5 h | half-life (Plasma pharmacokinetics; human, plasma, oral, T 1/2, MK‐2206 in combination, Expansion, arm A, MK‐2206 135 mg, dinaciclib 9 mg/m^2, mean ± SD): 2.9 ± 0.963 days | Tmax (Plasma pharmacokinetics; human, plasma, oral, Tmax, MK‐2206 in combination, Expansion, arm A, MK‐2206 135 mg, dinaciclib 9 mg/m^2): 10.2 h | Tmax (Plasma pharmacokinetics; human, plasma, oral, Tmax, MK‐2206 in combination, Expansion, arm B, MK‐2206 135 mg, dinaciclib 9 mg/m^2): 5.13 h | pSer473 Akt expression in tumor biopsies (pSer473 Akt): significant reduction

CCc1cnn2c(NCc3ccc[n+]([O-])c3)cc(N3CCCC[C@H]3CCO)nc12 [dinaciclib]
Dose reduction Dinaciclib [1, 3]: 2 (18%) n (%) | Dose reduction Dinaciclib ([1]; B: MK‐2206/combination N = 7): 0 (0%) n (%) | Dose reduction Dinaciclib ([1]; Dose escalation N = 21): 3 (14%) n (%) | maximum tolerated dose ([1]; dinaciclib i.v. weekly in combination with MK‐2206): 9 mg/m^2 | recommended phase II dose ([2]; single agent): 12 mg/m^2 | association between exposure (Cmax) and race (Plasma pharmacokinetics; African Americans and Asians vs white patients, P = 0.04): lower exposure | effect of co‐administration on exposure (Plasma pharmacokinetics): did not alter
